Test results as given in PMC3543460, “Structure-Activity Relationships of the Antimicrobial Peptide Arasin 1 — And Mode of Action Studies of the N-Terminal, Proline-Rich Region” (PLoS ONE, 2013).
Converted amounts (≈) assume the structure as drawn. Peptide text beside a SMILES is read from it. * marks the point of attachment. Acm = CC(=O)NC*

Columns and labels:
S. aureus ATCC 9144 = format: cell-based, Staphylococcus aureus; settings: ATCC 9144, 24 h
Method: (§1) Escherichia coli (ATCC 25922), E. coli HB101, Pseudomonas aeruginosa (ATCC 27853), Staphylococcus aureus (ATCC 9144) and Corynebacterium glutamicum (ATCC 13032) were grown at 37°C in Mueller Hinton agar (MH; Difco Laboratories, Detroit, USA). The yeasts Candida albicans (ATCC 10231) and Saccharomyces cerevisiae spp and the mold Botrytis cinerea 101 [33] were cultivated on potato dextrose agar supplemented with 2% glucose at room temperature (RT).
(§2) Determination of the MIC against bacteria was performed by continuous monitoring of bacterial growth using a Bioscreen C microbiology reader (Labsystems Oy, Helsinki, Finland). The synthetic peptides were tested for antibacterial and antifungal activity at final concentrations (prepared from serial two-fold dilutions) ranging from 0.2 µM to 100 µM. The test was performed in 100-well flat-bottomed honeycomb plates, in which 50 µl peptide solution was incubated with 50 µl of a suspension of an actively growing culture of bacteria diluted to a starting concentration of 2.5×10^5 CFU/ml in Mueller Hinton Broth (MHB). The growth chamber was maintained at 37°C during the incubation period. The absorbance was measured by a turbidometric method with vertical light photometry and a wide band filter (420–580 nm). MIC was defined as the lowest concentration resulting in no visible bacterial growth after 24 h.

E. coli HB101 [1] = experiment: Membrane integrity assay II (propidium iodide, flow cytometry); format: cell-based, Escherichia coli; settings: 50% MH, 37°C, four independent experiments
Method: The effect of arasin 1(1–23) and cecropin P1 on membrane permeabilization was also studied by measuring the percentage of propidium iodide (PI) positive cells by flow cytometry. Samples of 1×10^6 cells/ml of E. coli HB101 were incubated in 50% MH with peptides at 37°C for different time span. After incubation, PI (Sigma Aldrich, Saint Louis, MO, USA) was added to the peptide-treated bacteria at a final concentration of 10 µg/ml. The cells were analyzed after 4 min of incubation with PI at 37°C in the flow cytometer as described.

C. glutamicum ATCC 13032 = format: cell-based, Corynebacterium glutamicum; settings: ATCC 13032, 24 h
Method: as §1, §2

E. coli HB101 [2] = experiment: Bactericidal assay (killing kinetics, colony counts); format: cell-based, Escherichia coli; settings: 50% MHB, 1×10^6 CFU/ml, 37°C
Method: During incubation, aliquots were removed at different time intervals, washed in buffered high salt solution (10 mM Na-phosphate, 400 mM NaCl, 10 mM MgCl2), diluted and plated on MH plates. The number of bacterial CFU was determined after approximately 48 h of incubation at 37°C.

[3] = tested on: E. coli HB101 constitutively expressing the luxCDABE operon; experiment: Cell viability assay (luxCDABE luminescence); format: cell-based, Escherichia coli; settings: 50% MH, OD600 0.2, 30°C
Method: E.coli HB101 was transformed with the plasmid pCGLS-11 to enable constitutive bacterial luciferase expression from the luxCDABE operon. The resulting strain was used for cell viability assays as follows. An overnight culture in MH medium with ampicillin (100 µg/ml) was pelleted at 3000×g for 10 min and washed in MH medium before re-suspending the cells in 50% MH medium with a final OD600 of approximately 0.2. After 30 min of incubation at 30°C the cells were again adjusted to an OD600 of 0.2. An aliquot of 95 µl of bacterial solution was dispensed into each well of a black 96 well microtiter plate with transparent bottom (Falcon, Bredford, MA, USA). To achieve the indicated concentrations, a multi-channel pipette was used to add 5 µl of a two-fold dilution series of peptide solution in water to 8 wells simultaneously. The plate was loaded into a Perkin-Elmer Envision microtiter plate reader immediately after addition of the peptide (arasin 1(1–23), PR-39(1–26) or cecropin P1) and the measurement started 30 sec later because of handling events and 2 seconds of shaking inside the plate reader. Light production and growth (OD595) of the sensor bacteria was followed for 3 h under repeated shaking cycles before each measurement at 30°C.

B. cinerea 101 = format: cell-based, Botrytis cinerea; settings: 101, 48 h
Method: as §1
(§3) Fungal spores were dissolved in potato dextrose broth (Difco, Lawrence, KS, USA) and the cell concentration was determined and adjusted after counting in a Bürker chamber. Botrytis cinerea was filtered through a piece of cotton before counting. An aliquot of 50 µl of fungal spores (final concentration 2×10^5 spores/ml) were inoculated in 96-well Nunclon™ microtitre plates (Nagle Nunc Int. Roskilde, Denmark) along with 50 µl of synthetic peptide dissolved in Milli-Q water. Cultures were grown in a dark moist chamber without shaking at 20°C for S. cerevisiae and B. cinerea, and at 37°C for C. albicans. Growth inhibition was determined microscopically after 48 h of incubation. Inhibitory concentrations (IC50) was defined as the lowest concentration tested which yielded less than 50% visible growth compared to the growth control (fungi). Each peptide was tested in parallels in three individual runs for the antimicrobial assays.

P. aeruginosa ATCC 27853 = format: cell-based, Pseudomonas aeruginosa; settings: ATCC 27853, 24 h
Method: as §1, §2

S. cerevisiae spp. = format: cell-based, Saccharomyces cerevisiae; settings: 48 h
Method: as §1, §3

E. coli ATCC 25922 = format: cell-based, Escherichia coli; settings: ATCC 25922, 24 h
Method: as §1, §2

C. albicans ATCC 10231 = format: cell-based, Candida albicans; settings: ATCC 10231, 48 h
Method: as §1, §3

Chitin-binding assay = settings: 50 µg peptide with 40 mg chitin, washes with 0.1 M NaCl, 1 M NaCl, 10% acetic acid at 95°C; RP-HPLC of supernatants
Method: The ability of arasin 1(1–23) and arasin 1(20–37)-Acm to bind chitin was estimated using a modified protocol from Kawabata et al.. Briefly, 50 µg of peptide was incubated with 40 mg chitin in 800 µl buffer (50 mM Tris-HCl, 0.1 M NaCl, pH 8.0). Sequentially chitin was incubated at RT with 800 µl buffer containing 0.1 M NaCl and 1 M NaCl, respectively, and finally at 95°C with 10% acetic acid. All incubations were performed for 10 min, and chitin was collected by centrifugation at 1000×g for 5 min between each step. Supernatants were subjected to RP-HPLC using a Sunfire™ Prep C18 column (Waters; 100 Å 5 µm; 10×250 mm, MA, USA), with a linear gradient from 8 to 60% acetonitrile and a flow of 3 ml/min over 60 min. Absorbance was monitored at 220 nm and the resulting chromatograms were compared.

[4] = tested on: E. coli HB101 expressing eukaryotic luciferase lucGR; experiment: Membrane integrity assay I (D-luciferin influx, lucGR luciferase); format: cell-based, Escherichia coli
Text: Escherichia coli HB101 was transformed with the plasmids pCSS962 and the helper plasmid pGB3 to allow for constitutive expression of the eukaryotic luciferase gene lucGR. The resulting strain was isogenic to the other E. coli strains used. The membrane permeabilization assay used is a modification of the protocol described by Virta et al.. The assay is based on E. coli cells, expressing a eukaryotic luciferase, depending on externally added D-luciferin as a substrate to emit light. At neutral pH the bacterial cytoplasmic membrane efficiently prevents uptake of external D-luciferin. However, disruption of the membrane by e.g. a membrane active AMP enhances D-luciferin influx and thereby induces bacterial light emission. Preparation of the cells and the assay plate was done as described for the viability assay above. However, chloramphenicol (30 µg/ml) was added in addition to ampicillin to the overnight culture, and D-luciferin sodium-salt (Biosynth, Staad, Switzerland) was added to the bacteria to final concentration of 1 mM. To allow shorter measurement intervals, only 8 wells were measured simultaneously. Arasin 1(1–23), PR-39(1–26) and cecropin P1 were tested for their membrane disruptive capacity.

E. coli = experiment: Antimicrobial activity at varied MH concentration; format: cell-based, Escherichia coli; settings: results not shown
Text: In contrast to the results from E. coli and P. aeruginosa, the C-terminal part of arasin 1(1–23) alone arasin 1(7–23) and 1(9–23) inhibits C. glutamicum and all the fungi. At the same time this antibacterial and antifungal activity is strictly dependent on a fragment between aa 13–23. This indicates a somewhat different mode of action for Gram- negative and Gram-positive bacteria, respectively. Likewise the mode of action against fungi is likely different. It is tempting to speculate that the N-terminal 5–10 amino acids might be involved in arasin 1(1–23) transfer across the outer membrane while the C-terminal part might bind the molecular target which is responsible for growth inhibition at low concentrations. The antimicrobial assays were all performed in MH or potato dextrose medium at a final concentration of 50% strength for bacteria and fungi, respectively. […] This means that the peptides are very sensitive to medium composition, and perhaps also salinity and/or ionic strength. […] In some studies, the use of diluted or poor medium instead of rich medium in MIC and mode of action studies is claimed to increase the sensitivity of the assays, [47]. The reasons of the medium-dependence have not been further evaluated, and 50% MH was used as the standard medium for the mode of action studies.

Molecule | MIC S. aureus ATCC 9144 (S. aureus ATCC 9144) [µM] | PI-positive (permeabilized) cells (E. coli HB101 [1]; peptide at 5×MIC (20 µM), 1×10^6 cells/ml) [%] | PI-positive (permeabilized) cells (E. coli HB101 [1]; peptide at 10×MIC (40 µM), after 15 min of treatment) | PI-positive (permeabilized) cells (E. coli HB101 [1]; peptide at MIC (4 µM), 1×10^6 cells/ml, background subtracted) [%] | MIC C. glutamicum ATCC 13032 (C. glutamicum ATCC 13032) [µM] | effect on viable cell count at MIC (E. coli HB101 [2]; 4 µM (MIC), up to 4 h) | reduction of viable E. coli cells (E. coli HB101 [2]; 20 µM (5×MIC), after 30 min) [log] | luminescence compared to untreated bacteria ([3]; after 10 min, at 10-fold MIC) | luminescence compared to untreated bacteria ([3]; at MIC values (5 µM)) | IC50 (B. cinerea 101) [µM] | MIC P. aeruginosa ATCC 27853 (P. aeruginosa ATCC 27853) [µM] | IC50 (S. cerevisiae spp.) [µM] | MIC E. coli ATCC 25922 (E. coli ATCC 25922) [µM] | IC50 (C. albicans ATCC 10231) [µM] | binding to chitin (Chitin-binding assay) | light emission (D-luciferin influx) at concentrations above MIC ([4]; 1 mM D-luciferin) | light emission (D-luciferin influx) at concentration around MIC ([4]; compared with cecropin P1 treatment, 1 mM D-luciferin) | time at which permeabilization peaked ([4]; high concentrations of peptide) | change of antimicrobial activity against E. coli by varying the MH concentration (E. coli)
CC[C@H](C)[C@H](NC(=O)[C@@H]1CCCN1C(=O)[C@H](CCCCN)NC(=O)[C@@H]1CCCN1C(=O)[C@H](CCCNC(=N)N)NC(=O)CNC(=O)[C@@H]1CCCN1C(=O)[C@H](Cc1ccccc1)NC(=O)[C@@H]1CCCN1C(=O)[C@H](CCCNC(=N)N)NC(=O)[C@@H]1CCCN1C(=O)[C@H](CCCNC(=N)N)NC(=O)CNC(=O)[C@@H]1CCCN1C(=O)[C@H](CO)NC(=O)[C@@H]1CCCN1C(=O)[C@H](Cc1c[nH]c2ccccc12)NC(=O)[C@H](CCCNC(=N)N)NC(=O)[C@@H](N)CO)C(=O)N[C@@H](Cc1ccccc1)C(=O)N[C@@H](CCCNC(=N)N)C(=O)N1CCC[C@H]1C(=O)N[C@@H](CCCNC(=N)N)C(=O)O [Arasin 1(1–23)] (H-SRWPSPGRPRPFPGRPKPIFRPR-OH; N-terminus and C-terminus assumed) | >100 | 30 | approximately 75% | ~10 | 0.8 (≈ 2.19 µg/mL) | inhibition of bacterial growth without decreasing the number of viable cells | 1 | more than 60% | more than 80% | 12.5 | 12.5 (≈ 34.3 µg/mL) | 12.5 | 6.3 (≈ 17.3 µg/mL) | 12.5 | strong binding of the peptide to chitin | doubling of light emission | Minimal amounts of light | approximately 10 min | 
CC(=O)NCSC[C@H](NC(=O)[C@H](CC(N)=O)NC(=O)[C@H](CSCNC(C)=O)NC(=O)[C@@H]1CCCN1C(=O)[C@H](CCCNC(=N)N)NC(=O)[C@@H]1CCCN1C(=O)[C@H](CCCNC(=N)N)NC(=O)[C@@H](N)Cc1ccccc1)C(=O)N[C@@H](Cc1ccc(O)cc1)C(=O)N[C@@H](C)C(=O)N1CCC[C@H]1C(=O)N1CCC[C@H]1C(=O)N[C@@H](CSCNC(C)=O)C(=O)N1CCC[C@H]1C(=O)N[C@@H](CSCNC(C)=O)C(=O)N[C@@H](CC(=O)O)C(=O)N[C@@H](CCCNC(=N)N)C(=O)N[C@@H](Cc1c[nH]c2ccccc12)C(=O)O [Arasin 1(20–37)-Acm] (H-FRPRPC(Acm)NC(Acm)YAPPC(Acm)PC(Acm)DRW-OH; N-terminus and C-terminus assumed) | >100 |  |  |  | >100 |  |  |  |  | > 100 | >100 | > 100 | >100 | > 100 | did not bind tightly to chitin |  |  |  | 
Bac7(1–16): fragment of the mammalian proline-rich antimicrobial peptide Bac7 (RRIRPRPPRLPRPRPR; Bactenecin 7; UniProt P19661 131-146, looked up, fragment) |  |  |  |  |  |  |  |  |  |  |  |  |  |  |  |  |  |  | did not change the antimicrobial activity
